{"source": "patent US20240240224A1", "about": "“FLUORESCENT D-TYPE AMINO ACID METABOLISM MARKER-BASED METHOD FOR DETECTING ANTIBACTERIAL DRUG SENSITIVITY TEST” (priority 2020, published 2024)", "key": {"S. aureus Sa22 [1]": {"test_system": "S. aureus Sa22", "assay": "BMD susceptibility test", "assay_type": "cell-based, Staphylococcus aureus", "conditions": "unit assumed"}, "S. aureus ATCC29213 [2]": {"test_system": "S. aureus ATCC29213", "assay": "FaAST (FDAA metabolic labeling method)", "assay_type": "cell-based, Staphylococcus aureus", "conditions": "unit assumed", "method": "(§1) Take the colony to be tested that has been cultured overnight on the plate and fully mix it in normal saline to make a uniform bacterial solution. Dilute it into Cation-Adjusted Mueller Hinton Broth (CAMHB) culture medium to make a bacterial solution with OD600=0.05. • 2. Add 45 μl antibiotic solutions of different concentrations to 96-well plates (see Table 1 for antibiotic concentration gradient settings). • 3. Add 50 μl of the bacterial solution prepared in step 1 to the 96-well plate and mix well. • 4. Add 5 μl of 10 mM Cy5-DAA probe (final concentration 0.15 mM, see FIG. 1 for its structure) into each well, mix well, and cultivate in dark for 2 hours. • 5. Add 200 μl After PBS solution is diluted, the fluorescence intensity of each sample is detected by flow cytometry. The flow detection results are shown in FIG. 4-5, showing the curve of the change of antibiotic concentration gradient and fluorescence intensity. The MIC (minimum inhibitory concentration) can be obtained by referring to this curve.\n(§2) Bacteria with antibiotic resistance are shown in bold in the following table."}, "S. aureus Sa22 [3]": {"test_system": "S. aureus Sa22", "assay": "FaAST (FDAA metabolic labeling method)", "assay_type": "cell-based, Staphylococcus aureus", "conditions": "unit assumed", "method": "as §1, §2"}, "S. aureus Sa23 [4]": {"test_system": "S. aureus Sa23", "assay": "FaAST (FDAA metabolic labeling method)", "assay_type": "cell-based, Staphylococcus aureus", "conditions": "unit assumed", "method": "as §1, §2"}, "S. aureus Sa23 [5]": {"test_system": "S. aureus Sa23", "assay": "BMD susceptibility test", "assay_type": "cell-based, Staphylococcus aureus", "conditions": "unit assumed"}, "S. aureus ATCC29213 [6]": {"test_system": "S. aureus ATCC29213", "assay": "BMD susceptibility test", "assay_type": "cell-based, Staphylococcus aureus", "conditions": "unit assumed"}, "E. faecium Ef26 [7]": {"test_system": "E. faecium Ef26", "assay": "BMD susceptibility test", "assay_type": "cell-based, Enterococcus faecium", "conditions": "unit assumed"}, "E. faecium Ef26 [8]": {"test_system": "E. faecium Ef26", "assay": "FaAST (FDAA metabolic labeling method)", "assay_type": "cell-based, Enterococcus faecium", "conditions": "unit assumed", "method": "as §1, §2"}, "E. faecium Ef28 [9]": {"test_system": "E. faecium Ef28", "assay": "BMD susceptibility test", "assay_type": "cell-based, Enterococcus faecium", "conditions": "unit assumed"}, "E. faecium Ef28 [10]": {"test_system": "E. faecium Ef28", "assay": "FaAST (FDAA metabolic labeling method)", "assay_type": "cell-based, Enterococcus faecium", "conditions": "unit assumed", "method": "as §1, with “The flow detection results are shown in FIG. 4-5, showing the curve of the change of antibiotic concentration gradient and fluorescence intensity.” left out"}, "E. faecalis ATCC29212 [11]": {"test_system": "E. faecalis ATCC29212", "assay": "BMD susceptibility test", "assay_type": "cell-based, Enterococcus faecalis", "conditions": "unit assumed"}, "E. faecalis ATCC29212 [12]": {"test_system": "E. faecalis ATCC29212", "assay": "FaAST (FDAA metabolic labeling method)", "assay_type": "cell-based, Enterococcus faecalis", "conditions": "unit assumed", "method": "as §1, §2"}, "[13]": {"test_system": "alveolar lavage fluid sample 0130, A. baumannii", "assay": "BMD susceptibility test of patient alveolar lavage fluid", "assay_type": "cell-based, Acinetobacter baumannii", "conditions": "unit assumed", "excerpt": "(§3) The results of antimicrobial susceptibility test of alveolar lavage fluid of seven patients using FDAA and BMD methods are shown in the following table. The drug-resistant bacteria are shown in bold."}, "[14]": {"test_system": "alveolar lavage fluid sample 0206, A. baumannii", "assay": "BMD susceptibility test of patient alveolar lavage fluid", "assay_type": "cell-based, Acinetobacter baumannii", "conditions": "unit assumed", "excerpt": "as §3"}, "[15]": {"test_system": "alveolar lavage fluid sample 0219, A. baumannii", "assay": "BMD susceptibility test of patient alveolar lavage fluid", "assay_type": "cell-based, Acinetobacter baumannii", "conditions": "unit assumed", "excerpt": "as §3"}, "[16]": {"test_system": "alveolar lavage fluid sample 0130, A. baumannii", "assay": "FaAST (FDAA) susceptibility test of patient alveolar lavage fluid", "assay_type": "cell-based, Acinetobacter baumannii", "conditions": "unit assumed", "method": "(§4) With reference to the flow chart of the rapid detection method of antimicrobial susceptibility test based on FDAA metabolic markers shown in FIG. 3, FDAA is used for the detection of antimicrobial susceptibility test of alveolar lavage fluid. The specific experimental steps are as follows: • 1. Mix bronchoalveolar lavage fluid (BALF, 10 ml) of patients with hospital acquired pneumonia with cation regulated broth medium (CAMHB, 10 ml) of twice the concentration to prepare the bacterial fluid to be tested. • 2. Add 45 μl antibiotic solutions of different concentrations to the 96-well plate separately (see Table 1 for antibiotic concentration gradient settings). • 3. Add 50 μl of the bacterial solution prepared in step 1 to the 96-well plate and mix well. • 4. Add 5 μl of 10 mM Cy5-DAA probe (final concentration 0.15 mM, see FIG. 1 for its structure) into each well, mix well, and then cultivate in dark for 2 hours. • 5. Add 200 μl PBS solution for dilution, and then use flow cytometry to detect the fluorescence intensity of each sample.\nas §3"}, "[17]": {"test_system": "alveolar lavage fluid sample 0204, A. baumannii", "assay": "FaAST (FDAA) susceptibility test of patient alveolar lavage fluid", "assay_type": "cell-based, Acinetobacter baumannii", "conditions": "unit assumed", "method": "as §4, §3"}, "[18]": {"test_system": "alveolar lavage fluid sample 0206, A. baumannii", "assay": "FaAST (FDAA) susceptibility test of patient alveolar lavage fluid", "assay_type": "cell-based, Acinetobacter baumannii", "conditions": "unit assumed", "method": "as §4, §3"}, "[19]": {"test_system": "alveolar lavage fluid sample 0219, A. baumannii", "assay": "FaAST (FDAA) susceptibility test of patient alveolar lavage fluid", "assay_type": "cell-based, Acinetobacter baumannii", "conditions": "unit assumed", "method": "as §4, §3"}, "[20]": {"test_system": "alveolar lavage fluid sample 0203, K. pneumoniae", "assay": "BMD susceptibility test of patient alveolar lavage fluid", "assay_type": "cell-based, Klebsiella pneumoniae", "conditions": "unit assumed", "excerpt": "as §3"}, "[21]": {"test_system": "alveolar lavage fluid sample 0226, K. pneumoniae", "assay": "BMD susceptibility test of patient alveolar lavage fluid", "assay_type": "cell-based, Klebsiella pneumoniae", "conditions": "unit assumed", "excerpt": "as §3"}, "[22]": {"test_system": "alveolar lavage fluid sample 0203, K. pneumoniae", "assay": "FaAST (FDAA) susceptibility test of patient alveolar lavage fluid", "assay_type": "cell-based, Klebsiella pneumoniae", "conditions": "unit assumed", "method": "as §4, §3"}, "[23]": {"test_system": "alveolar lavage fluid sample 0226, K. pneumoniae", "assay": "FaAST (FDAA) susceptibility test of patient alveolar lavage fluid", "assay_type": "cell-based, Klebsiella pneumoniae", "conditions": "unit assumed", "method": "as §4, §3"}, "[24]": {"test_system": "Staphylococcus aureus SA31", "assay": "FaAST with DAA-Tetra probe", "assay_type": "cell-based", "conditions": "unit assumed", "method": "The specific experimental steps are as follows: • 1. The tested colonies cultured overnight on the plate were picked and mixed thoroughly in 2× Cation-Adjusted Mueller Hinton Broth medium (2×CAMHB) to make bacterial suspension with turbidity of OD600=0.1. • 2. […] Add 50 μL of the bacterial solution prepared in step 1 (the final concentration of the bacterial solution is OD600=0.05) to the 96-well plate, and add 5 μL of 3 mM DAA-Tetra probe (the final concentration is 0.15 mM), mix well, and incubate in the dark at 37° C. 120 rpm for 2 hours. • 4. After culture, dilute the mixed bacterial solution 10 times with PBS solution, and detect the fluorescence intensity of each sample with flow cytometry. The flow detection result is shown in FIG. 14-19, and the arrow is for the MIC value. The minimum inhibitory concentration of antibiotics was obtained according to the fluorescence signal intensity of flow detection, and the statistical results are shown in Table 6."}, "[25]": {"test_system": "Staphylococcus aureus SA31", "assay": "VITEK drug sensitivity test", "assay_type": "cell-based", "conditions": "unit assumed"}, "[26]": {"test_system": "Staphylococcus aureus SA22", "assay": "FaAST with DAA-Cy5-2 probe", "assay_type": "cell-based", "conditions": "unit assumed", "method": "as §4\nThe specific steps are the same as in Example 5. […] The minimum inhibitory concentration of antibiotics was obtained according to the fluorescence signal intensity of flow detection, and the statistical results are shown in Table 7."}, "[27]": {"test_system": "Staphylococcus aureus SA22", "assay": "VITEK drug sensitivity test", "assay_type": "cell-based", "conditions": "unit assumed"}, "S. aureus ATCC29213 [28]": {"test_system": "S. aureus ATCC29213", "conditions": "cited from earlier work"}, "E. faecalis ATCC29212 [29]": {"test_system": "E. faecalis ATCC29212", "conditions": "cited from earlier work"}}, "data": [{"compound": "CC(=O)NC[C@H]1CN(c2ccc(N3CCOCC3)c(F)c2)C(=O)O1", "note": "[Linezolid, linezolid]", "values": [{"measurement": "BMD (MIC)", "setting": "S. aureus Sa22 [1]", "value": 2, "unit": "µg/mL"}, {"measurement": "FaAST (MIC)", "setting": "S. aureus ATCC29213 [2]", "value": 2, "unit": "µg/mL"}, {"measurement": "FaAST (MIC)", "setting": "S. aureus Sa22 [3]", "value": 1, "unit": "µg/mL"}, {"measurement": "FaAST (MIC)", "setting": "S. aureus Sa23 [4]", "value": 8, "unit": "µg/mL"}, {"measurement": "BMD (MIC)", "setting": "S. aureus Sa23 [5]", "value": 8, "unit": "µg/mL"}, {"measurement": "BMD (MIC)", "setting": "S. aureus ATCC29213 [6]", "value": 2, "unit": "µg/mL"}, {"measurement": "BMD (MIC)", "setting": "E. faecium Ef26 [7]", "value": 2, "unit": "µg/mL"}, {"measurement": "FaAST (MIC)", "setting": "E. faecium Ef26 [8]", "value": 2, "unit": "µg/mL"}, {"measurement": "BMD (MIC)", "setting": "E. faecium Ef28 [9]", "value": 2, "unit": "µg/mL"}, {"measurement": "FaAST (MIC)", "setting": "E. faecium Ef28 [10]", "value": 2, "unit": "µg/mL"}, {"measurement": "BMD (MIC)", "setting": "E. faecalis ATCC29212 [11]", "value": 1, "unit": "µg/mL"}, {"measurement": "FaAST (MIC)", "setting": "E. faecalis ATCC29212 [12]", "value": 2, "unit": "µg/mL"}, {"measurement": "BMD (MIC)", "setting": "[13]", "value": 64, "unit": "µg/mL"}, {"measurement": "BMD (MIC)", "setting": "[14]", "value": 128, "unit": "µg/mL"}, {"measurement": "BMD (MIC)", "setting": "[15]", "value": 32, "unit": "µg/mL"}, {"measurement": "FaAST (MIC)", "setting": "[16]", "value": 64, "unit": "µg/mL"}, {"measurement": "FaAST (MIC)", "setting": "[17]", "value": 64, "unit": "µg/mL"}, {"measurement": "FaAST (MIC)", "setting": "[18]", "value": 64, "unit": "µg/mL"}, {"measurement": "FaAST (MIC)", "setting": "[19]", "value": 16, "unit": "µg/mL"}, {"measurement": "BMD (MIC)", "setting": "[20]", "value": 64, "unit": "µg/mL"}, {"measurement": "BMD (MIC)", "setting": "[21]", "value": 64, "unit": "µg/mL"}, {"measurement": "FaAST (MIC)", "setting": "[22]", "value": 16, "unit": "µg/mL"}, {"measurement": "FaAST (MIC)", "setting": "[23]", "value": 16, "unit": "µg/mL"}, {"measurement": "MIC, FaAST", "setting": "[24]", "value": 1, "unit": "µg/mL"}, {"measurement": "MIC, VITEK", "setting": "[25]", "value": 1, "unit": "µg/mL"}, {"measurement": "MIC, FaAST", "setting": "[26]", "value": 0.5, "unit": "µg/mL"}, {"measurement": "MIC, VITEK", "setting": "[27]", "value": 1, "unit": "µg/mL"}, {"measurement": "CLSI QC range", "setting": "S. aureus ATCC29213 [28]", "value": "1-4"}, {"measurement": "CLSI QC range", "setting": "E. faecalis ATCC29212 [29]", "value": "1-4"}]}]}
